Laboratory results published in patent US9790233B2, “Compositions and methods of modulating 15-PGDH activity” (CASE WESTERN RESERVE UNIVERSITY, priority 2012, dated 2017).

Key:
A549 cells [1] = assay: PGE2 levels in the medium of IL1-beta stimulated A549 cells; assay type: cell-based;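 note: PGE2 in the collected culture medium quantified by enzyme immunoassay (ELISA), with data drawn from three independent experiments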
A549 cells [2] = assay: Cellular toxicity on A549 cells (CellTiter-Glo); assay type: cell-based; settings: 24 hours; concentrations of up to 10 uM
Hepatocyte stability = assay type: in vitro ADME
Protocol: Time to inhibition refers to the time needed to inhibit the generation of NADH by 15-PGDH from the moment with drug is added into the reaction mix. Delta Tm refers to the shift in melting temperature of recombinant 15-PGDH in the presence of drug (with cofactor NADH also present). Concentration of Full Cell Line Reporter Induction refers to the concentration of drug that needs to be added to reporter cell line to achieve maximal induction of the 15-PGDH-luciferase gene fusion reporter cassette, as measured by luciferase assays. Hepatocyte stability refers to the half-life of compound in the presence of hepatocytes in culture. Toxicity refers to the concentration of compound needed to decrease cell numbers in a cell culture assay.

[3] = Survival after whole body irradiation; assay type: in vivo, C57BL/6J mice
CD45.2 marked marrow = assay: Competitive bone marrow transplant, blood chimerism; assay type: in vivo, C57BL/6J mice; settings: donors 5 mg/kg IP daily for 3 doses; weeks 12 and 16
Protocol: On day 3 mice were sacrificed, marrow flushed and mixed at a 1:1 ratio with vehicle treated CD45.1 marrow. 2 million whole BM cells were injected into the tail vein of lethally irradiated CD45.1 mice and percent chimerism measured via flow cytometry at weeks 8, 12, 16.

15-PGDH mRNA = 15-PGDH mRNA levels by real-time PCR; assay type: cell-based
[4] = Survival following acetaminophen (Tylenol) overdose; assay type: in vivo, C57BL/6J mice
colon = assay: Dextran sodium sulfate (DSS) induced colitis; assay type: in vivo, FVB mice
[5] = Survival of irradiated mice receiving a bone marrow transplant; assay type: in vivo, C57BL/6J mice
Description: The experimental design is depicted in FIG. 50.
Under the conditions of the mouse colony during this study, control mice receiving 100,000-500,000 cells are all dead between days 4-13 of study. […] Such activity would be of particular utility in settings, such as transplantation with umbilical cord stem cells, in which donor cell numbers are limited.

CCCC[S+]([O-])c1sc2nc(-c3cccs3)cc(-c3ccccc3)c2c1N (centres unmarked) [SW033291, 2-(butylsulfinyl)-4-phenyl-6-(thiophen-2-yl)thieno[2,3-b]pyridin-3-amine]
rank of PGE2 level in the medium (A549 cells [1]; 100 nM drug, FIG. 44): next highest level of PGE2 | PGE2 levels in medium (A549 cells [1]; IL1-beta 23 hours, compound added for the last 5 hours): clear inhibition of 15-PGDH activity | effect on CellTitre-Glo levels (A549 cells [2]): No effect on CellTitre-Glo levels | Hepatocyte stability (Hepatocyte stability; Table 4): Stable > | Hepatocyte stability (Hepatocyte stability; half-life in presence of hepatocytes in culture, Table 3): Stable > couple | number of mice surviving ([3]; 7 Gy, 5 mg/kg IP daily for 7 doses, Day 5): 3 | number of mice surviving ([3]; 7 Gy, Day 6): 3 | number of mice surviving ([3]; 7 Gy, Day 7): 3 | number of mice surviving ([3]; 7 Gy, Day 8): 3 | number of mice surviving ([3]; 7 Gy, Day 9): 3 | number of mice surviving ([3]; 7 Gy, Day 10): 3 | number of mice surviving ([3]; 7 Gy, Day 11): 3 | number of mice surviving ([3]; 7 Gy, Day 12): 3 | number of mice surviving ([3]; 7 Gy, Day 13): 3 | number of mice surviving ([3]; 7 Gy, Day 14): 3 | number of mice surviving ([3]; 7 Gy, Day 15): 3 | appearance of surviving mice ([3]; 7 Gy, Day 25 (cell wraps: Looks / Healthy)): Looks | number of mice surviving ([3]; 9 Gy, 5 mg/kg IP daily for 7 doses, Day 5): 3 | number of mice surviving ([3]; 9 Gy, Day 6): 3 | number of mice surviving ([3]; 9 Gy, Day 7): 3 | number of mice surviving ([3]; 9 Gy, Day 8): 3 | number of mice surviving ([3]; 9 Gy, Day 9): 3 | number of mice surviving ([3]; 9 Gy, Day 10): 3 | number of mice surviving ([3]; 9 Gy, Day 11): 3 | number of mice surviving ([3]; 9 Gy, Day 12): 2 | number of mice surviving ([3]; 9 Gy, Day 13): 2 | number of mice surviving ([3]; 9 Gy, Day 14): 1 | number of mice surviving ([3]; 9 Gy, Day 15): 0 | number of mice surviving ([3]; 11 Gy, 5 mg/kg 1 dose/daily for 7 days, Day 5): 3 | number of mice surviving ([3]; 11 Gy, 5 mg/kg 1 dose/daily, continuous every day, Day 5): 3 | number of mice surviving ([3]; 11 Gy, 5 mg/kg IP daily for 7 doses, Day 5): 3 | number of mice surviving ([3]; 11 Gy, 5 mg/kg, 7 days, 2 dose daily, Day 5): 3 | number of mice surviving ([3]; 11 Gy, 1 dose/daily for 7 days, Day 6): 3 | number of mice surviving ([3]; 11 Gy, 1 dose/daily for 7 days, Day 7): 3 | number of mice surviving ([3]; 11 Gy, 1 dose/daily for 7 days, Day 8): 2 | number of mice surviving ([3]; 11 Gy, 1 dose/daily for 7 days, Day 9): 1 | number of mice surviving ([3]; 11 Gy, 1 dose/daily for 7 days, Day 10): 0 | number of mice surviving ([3]; 11 Gy, 1 dose/daily, continuous every day, Day 6): 3 | number of mice surviving ([3]; 11 Gy, 1 dose/daily, continuous every day, Day 7): 3 | number of mice surviving ([3]; 11 Gy, 1 dose/daily, continuous every day, Day 8): 3 | number of mice surviving ([3]; 11 Gy, 1 dose/daily, continuous every day, Day 9): 2 | number of mice surviving ([3]; 11 Gy, 1 dose/daily, continuous every day, Day 10): 0 | number of mice surviving ([3]; 11 Gy, 7 days, 2 dose daily, Day 6): 3 | number of mice surviving ([3]; 11 Gy, 7 days, 2 dose daily, Day 7): 3 | number of mice surviving ([3]; 11 Gy, 7 days, 2 dose daily, Day 8): 3 | number of mice surviving ([3]; 11 Gy, 7 days, 2 dose daily, Day 9): 2 | number of mice surviving ([3]; 11 Gy, 7 days, 2 dose daily, Day 10): 0 | number of mice surviving ([3]; 11 Gy, Table 7, Day 6): 3 | number of mice surviving ([3]; 11 Gy, Table 7, Day 7): 3 | number of mice surviving ([3]; 11 Gy, Table 7, Day 8): 3 | number of mice surviving ([3]; 11 Gy, Table 7, Day 9): 2 | number of mice surviving ([3]; 11 Gy, Table 7, Day 10): 0 | longer survival than vehicle control, on average ([3]; 11 Gy, any of the dosing schedules): 1 to 2 days | percent blood chimerism of CD45.2 marked cells (CD45.2 marked marrow): significantly increased | 15-PGDH mRNA levels (real-time PCR) (15-PGDH mRNA; V503 cells): slight increase in 15-PGDH mRNA | 15-PGDH mRNA levels (real-time PCR) (15-PGDH mRNA; treated colon cancer cell lines): do not in general alter 15-PGDH mRNA levels | number of mice surviving ([4]; 1 dose/daily, first dose immediately after Tylenol, 24 hrs): 6 | number of mice surviving ([4]; 2 dose/daily, first dose immediately after Tylenol, 24 hrs): 6 | number of mice surviving ([4]; 2 dose/daily, first dose immediately after Tylenol, 48 hrs): 3 | number of mice surviving ([4]; 2 dose/daily, first dose immediately after Tylenol, 64 hrs): 3 | number of mice surviving ([4]; 2 dose/daily, first dose immediately after Tylenol, 72 hrs): 3 | number of mice surviving ([4]; 2 dose/daily, first dose immediately after Tylenol, 88 hr): 3 | number of mice surviving ([4]; 2 dose/daily, first dose immediately after Tylenol, 96 hr): 3 | number of mice surviving ([4]; 2 dose/daily, first dose immediately after Tylenol, 112 hr): 3 | number of mice surviving ([4]; 2 dose/daily, first dose immediately after Tylenol, 120 hr): 3 | number of mice surviving ([4]; acetaminophen 600 mg/kg, 5 mg/kg 1 dose/daily, first dose immediately after Tylenol injection, 16 hr): 6 | number of mice surviving ([4]; acetaminophen 600 mg/kg, 5 mg/kg 2 dose/daily, first dose immediately after Tylenol injection, 16 hr): 6 | Survival (number of mice) ([4]; acetaminophen 600 mg/kg, 5 mg/kg bid beginning 3 hours prior to acetaminophen, 6 doses, cohort of 6, 16 hr): 6 | Survival (number of mice) ([4]; acetaminophen 600 mg/kg, 5 mg/kg bid beginning 48 hours prior to acetaminophen, 9 doses, cohort of 12, 16 hr): 12 | mice survived at 120 hours ([4]; bid beginning 3 hours prior to acetaminophen): 3 of 6 | Survival (number of mice) ([4]; bid beginning 3 hours prior to acetaminophen, 24 hrs): 5 | Survival (number of mice) ([4]; bid beginning 3 hours prior to acetaminophen, 48 hrs): 3 | Survival (number of mice) ([4]; bid beginning 3 hours prior to acetaminophen, 64 hrs): 3 | Survival (number of mice) ([4]; bid beginning 3 hours prior to acetaminophen, 72 hrs): 3 | Survival (number of mice) ([4]; bid beginning 3 hours prior to acetaminophen, 88 hr): 3 | Survival (number of mice) ([4]; bid beginning 3 hours prior to acetaminophen, 96 hr): 3 | Survival (number of mice) ([4]; bid beginning 3 hours prior to acetaminophen, 112 hr): 3 | Survival (number of mice) ([4]; bid beginning 3 hours prior to acetaminophen, 120 hr): 3 | mice survived at 120 hours ([4]; bid beginning 48 hours prior to acetaminophen): 10 of 12 | Survival (number of mice) ([4]; bid beginning 48 hours prior to acetaminophen, 24 hrs): 12 | Survival (number of mice) ([4]; bid beginning 48 hours prior to acetaminophen, 40 hrs): 11 | Survival (number of mice) ([4]; bid beginning 48 hours prior to acetaminophen, 48 hrs): 10 | Survival (number of mice) ([4]; bid beginning 48 hours prior to acetaminophen, 64 hrs): 10 | Survival (number of mice) ([4]; bid beginning 48 hours prior to acetaminophen, 72 hrs): 10 | Survival (number of mice) ([4]; bid beginning 48 hours prior to acetaminophen, 88 hr): 10 | Survival (number of mice) ([4]; bid beginning 48 hours prior to acetaminophen, 96 hr): 10 | Survival (number of mice) ([4]; bid beginning 48 hours prior to acetaminophen, 112 hr): 10 | Survival (number of mice) ([4]; bid beginning 48 hours prior to acetaminophen, 120 hr): 10 | survival versus control mice ([4]; dosing begun immediately following acetaminophen, once or twice daily): No difference | change from baseline weight versus control (colon; 22 days): greater weight at all time points | ulcer formation prevented (colon; colonoscopy days 8, 11, 15): two-thirds | reduction of length of ulcerated mucosa (colon; day 15): 61% | body weight and colon length versus control (colon; day 22): greater body weight and greater colon lengths | MEICS scores versus control (colon; days 8, 11 and 15): significantly less colitis activity | number of surviving mice ([5]; 1 × 10^5 donor marrow cells, Day 2): 3 | number of surviving mice ([5]; 1 × 10^5 donor marrow cells, Day 3): 3 | number of surviving mice ([5]; 1 × 10^5 donor marrow cells, Day 4): 2 | number of surviving mice ([5]; 1 × 10^5 donor marrow cells, Day 5): 1 | number of surviving mice ([5]; 1 × 10^5 donor marrow cells, Day 6): 0 | number of surviving mice ([5]; 2 × 10^5 donor marrow cells, Day 2): 3 | number of surviving mice ([5]; 2 × 10^5 donor marrow cells, Day 3): 3 | number of surviving mice ([5]; 2 × 10^5 donor marrow cells, Day 4): 3 | number of surviving mice ([5]; 2 × 10^5 donor marrow cells, Day 5): 3 | number of surviving mice ([5]; 2 × 10^5 donor marrow cells, Day 6): 2 | number of surviving mice ([5]; 2 × 10^5 donor marrow cells, Day 7): 2 | number of surviving mice ([5]; 2 × 10^5 donor marrow cells, Day 8): 2 | number of surviving mice ([5]; 2 × 10^5 donor marrow cells, Day 9): 2 | number of surviving mice ([5]; 2 × 10^5 donor marrow cells, Day 10): 2 | number of surviving mice ([5]; 2 × 10^5 donor marrow cells, Day 11): 2 | number of surviving mice ([5]; 2 × 10^5 donor marrow cells, Day 12): 1 | number of surviving mice ([5]; 2 × 10^5 donor marrow cells, Day 13): 0 | number of surviving mice ([5]; 5 × 10^5 donor marrow cells, Day 2): 3 | number of surviving mice ([5]; 5 × 10^5 donor marrow cells, Day 3): 3 | number of surviving mice ([5]; 5 × 10^5 donor marrow cells, Day 4): 3 | number of surviving mice ([5]; 5 × 10^5 donor marrow cells, Day 5): 3 | number of surviving mice ([5]; 5 × 10^5 donor marrow cells, Day 6): 3 | number of surviving mice ([5]; 5 × 10^5 donor marrow cells, Day 7): 3 | number of surviving mice ([5]; 5 × 10^5 donor marrow cells, Day 8): 2 | number of surviving mice ([5]; 5 × 10^5 donor marrow cells, Day 9): 2 | number of surviving mice ([5]; 5 × 10^5 donor marrow cells, Day 10): 2 | number of surviving mice ([5]; 5 × 10^5 donor marrow cells, Day 11): 2 | number of surviving mice ([5]; 5 × 10^5 donor marrow cells, Day 12): 2 | number of surviving mice ([5]; 5 × 10^5 donor marrow cells, Day 13): 2 | number of surviving mice ([5]; 5 × 10^5 donor marrow cells, Day 19): 2 | number of surviving mice ([5]; 11 Gy, 5 mg/kg IP bid, 1 × 10^5 donor marrow cells, Day 1): 3 | number of surviving mice ([5]; 11 Gy, 5 mg/kg IP bid, 2 × 10^5 donor marrow cells, Day 1): 3 | number of surviving mice ([5]; 11 Gy, 5 mg/kg IP bid, 5 × 10^5 donor marrow cells, Day 1): 3 | survival of transplanted mice ([5]; mouse, in vivo): promoted survival of mice receiving a bone marrow transplant
